Data on 24 compounds can be found in patent publication US4946858A, “Novel spirosuccinimides as aldose reductase inhibitors and antihyperglycemic agents” (American Home Products Corporation, priority 1989, dated 1990).

Read-outs that look alike come from different tables or passages of the source.

One assay has as its target T1, aldose reductase (Bos taurus, UniProt P16116).
T1 construct: preparation of the enzyme from bovine lens; from tissue; host or cells: bovine lens
Put plainly: In vitro inhibition of aldose reductase (modified Hayman and Kinoshita procedure, enzyme from bovine lens). The format is biochemical. As to conditions: read-out: % Inhibition in Vitro. The source says:
In the present case the procedure of Hayman and Kinoshita was modified in that the final chromatography step was omitted in the preparation of the enzyme from bovine lens.

The subject of the next assay is galactosemic rats. As to the kind of experiment: Lowering of galactitol (dulcitol) accumulation in tissues of galactosemic rats. It is filed as in vivo, rat (Sprague-Dawley). The following applies: for % Lowering of dulcitol accumulation In Vivo, % D (diaphragm) / % Lowering of dulcitol accumulation In Vivo, % L (lens) / % Lowering of dulcitol accumulation In Vivo, % N (sciatic nerve): 4 days, vs untreated galactosemic rats. The source says: The aldose reductase inhibiting property of the compounds of this invention and the utilization of the compounds in preventing, diminishing and alleviating diabetic complications by lowering polyol accumulation were also demonstrable in experiments using galactosemic rats, see Dvornik et al, Science, 182, 1146 (1973). Such experiments are exemplified hereinbelow after the listing of the following general comments pertaining to these experiments:
(a) Four or more groups of six male rats, 50-70 g, Sprague-Dawley strain, were used. The first group, the control group, was fed a mixture of laboratory chow (rodent Laboratory Chow, Purina) and glucose at 20% (w/w %) concentration. The untreated galactosemic group and the drug-treated groups were fed a similar diet in which galactose is substituted for glucose. The test compound was either admixed to the diet or administered by gavage. In experiments involving compound administration in the diet, the average dose administered was calculated from the actual food intake of the animals in each group. The concentration of galactose in the diet of the treated groups was the same as that for the untreated galactosemic groups.
(b) After four days, the amimals were killed by decapitation. The eyeballs were removed and punctured with a razor blade; the freed lenses were rolled gently on filter paper and weighed. The sciatic nerves were dissected as completely as possible and weighed. Both tissues when frozen can be kept up to two weeks before being analyzed for galactitol.
(c) The polyol determination was performed by a modification of the procedure of M. Kraml and L. Cosyns, Clin. Biochem., 2, 373 (1969). Only two minor reagent changes were made: (a) the rinsing mixture was an aqueous 5% (w/v) trichloroacetic acid solution and (b) the stock solution was prepared by dissolving 25 mg of dulcitol in 100 mL of an aqueous trichloroacetic acid solution. [N.B.: For each experiment the average value found in the tissue from rats fed the glucose diet was subtracted from the individual values found in the corresponding tissue in galactose-fed rats to obtain the amount of polyol accumulated.]
The figures under L, N, and D represent the percentage decrease of galactitol accumulation in the tissues of the lens, sciatic nerve, and diaphragm, respectively, for treated rats as compared to untreated rats.

In general, inhibition refers to how much of the control response was suppressed. Consider `CN1C2(CC(=O)NC2=O)c2ccccc2S1(=O)=O` (stereo not drawn) [Example 101, 2,3-Dihydro-2-methylspiro[benzisothiazole-3,3'-pyrrolidine]-2',5'-dione 1,1-Dioxide], for which the inhibition at 10 µM on aldose reductase (10^-5 M) was 40%. The inhibition at 1 µM at aldose reductase (10^-6 M) was found to be 6%.
For `CN1C(=O)c2ccc(Cl)cc2C12CC(=O)NC2=O` (stereo not drawn) [Example 102, 6-Chloro-2-methylspiro[1H-isoindole-1,3'-pyrrolidine]-2',3,5'(2H)-trione], the inhibition at 10 µM at aldose reductase (10^-5 M) amounted to 91%. For the same compound, the inhibition at 1 µM on aldose reductase (10^-6 M) stood at 80%. In addition, the “% Lowering of dulcitol accumulation In Vivo, % D (diaphragm)” value (“% Lowering … (diaphragm)” for short) in the assay on galactosemic rats (3 mg/kg) is listed as 43%; with galactosemic rats (25 mg/kg), 81%. Also, the “% Lowering of dulcitol accumulation In Vivo, % L (lens)” value (“% Lowering … (lens)” below) with galactosemic rats (3 mg/kg) turned out to be 9%; with galactosemic rats (25 mg/kg) it was 51%. Moreover, the “% Lowering of dulcitol accumulation In Vivo, % N (sciatic nerve)” value (shortened to “% Lowering … (sciatic nerve)”) in the assay on galactosemic rats (3 mg/kg, sciatic nerve) was 38%; in the assay with galactosemic rats (25 mg/kg, sciatic nerve), 84%. Also, the “comparison with sorbinil and tolrestat in the sciatic nerve” value in the assay on galactosemic rats (3 mg/kg/day, sciatic nerve) is “comparable results to sorbinil at 4 mg/kg/day and tolrestat at 3 mg/kg/day in the sciatic nerve”.
For `O=C1CC2(C(=O)N1)c1ccccc1S(=O)(=O)N2Cc1ccccc1` (stereo not drawn) [Example 103], the inhibition at 10 µM at aldose reductase (10^-5 M) was determined as 45%. Also, the inhibition at 1 µM at aldose reductase (10^-6 M) was 5%.
For `O=C1CC2(C(=O)N1)c1ccccc1S(=O)(=O)N2Cc1ccc2ccccc2c1Br` (stereo not drawn) [Example 112], in that order: 59% and 25%.
For `O=C1CC2(C(=O)N1)c1ccccc1S(=O)(=O)N2Cc1ccc2ccccc2c1` (stereo not drawn) [Example 113], in that order: 57% and 20%.
For the compound `CN1C(=O)c2ccccc2C12CC(=O)NC2=O` (stereo not drawn) [Example 117], the inhibition at 1 µM on aldose reductase (10^-6 M) came out at 45%.
`CN1C(=O)c2cc(Cl)ccc2C12CC(=O)NC2=O` (stereo not drawn) [Example 120, 5-chloro-2-methylspiro[1H-isoindole-1,3'-pyrrolidine]-2',3,5'(2H)-trione]: the inhibition at 10 µM on aldose reductase (10^-5 M) worked out at 88%. In addition, on aldose reductase (10^-6 M), the inhibition at 1 µM is 72%. Further, the “% Lowering … (sciatic nerve)” value in the assay on galactosemic rats (3 mg/kg, sciatic nerve) stood at 21%. For the same compound, in the assay on galactosemic rats (81 mg/kg), the “% Lowering … (diaphragm)” value was 80% and the “% Lowering … (lens)” value is given as 54%. Also, in the assay on galactosemic rats (81 mg/kg, sciatic nerve), the “% Lowering … (sciatic nerve)” value worked out at 77%.
With `O=C1CC2(C(=O)N1)c1cc(Cl)ccc1C(=O)N2Cc1ccc(Br)cc1F` (stereo not drawn) [Example 121], the inhibition at 10 µM at aldose reductase (10^-5 M) worked out at 85%. Further, at aldose reductase (10^-6 M), the inhibition at 1 µM is 70%.
Consider `CN1C(=O)c2ccc(F)cc2C12CC(=O)NC2=O` (stereo not drawn) [Example 123], for which the inhibition at 1 µM at aldose reductase (10^-6 M) is 74%. For the same compound, the inhibition at 10 µM on aldose reductase came to 93%.
Take `CN1C(=O)c2cc3ccccc3cc2C12CC(=O)NC2=O` (stereo not drawn) [Example 124, 2-methylspiro[1H-benz[f]isoindole-1,3'-pyrrolidine]-2',3,5'(2H)-trione]: at aldose reductase (10^-5 M), the inhibition at 10 µM was 95%. Also, at aldose reductase (10^-6 M), the inhibition at 1 µM came out at 82%. Besides, in the assay on galactosemic rats (10 mg/kg), the “% Lowering … (diaphragm)” value worked out at 59% and the “% Lowering … (lens)” value is given as 14%. Further, the “% Lowering … (sciatic nerve)” value in the assay on galactosemic rats (10 mg/kg, sciatic nerve) is 47%.
As for `CN1C(=O)c2cccc(Cl)c2C12CC(=O)NC2=O` (stereo not drawn) [Example 125], on aldose reductase (10^-5 M), the inhibition at 10 µM is 88%. In addition, the inhibition at 1 µM at aldose reductase (10^-6 M) was 57%. Also, the “% Lowering … (diaphragm)” value in the assay with galactosemic rats (3 mg/kg) stood at 23%; in the assay with galactosemic rats (6 mg/kg) it was 37%; with galactosemic rats (10 mg/kg), 47%. The “% Lowering … (lens)” value in the assay with galactosemic rats (6 mg/kg) was 7%; with galactosemic rats (10 mg/kg), 13%. The “% Lowering … (sciatic nerve)” value in the assay on galactosemic rats (6 mg/kg, sciatic nerve) was 21%; in the assay with galactosemic rats (10 mg/kg, sciatic nerve), 32%.
Regarding `CN1C(=O)c2c(Cl)cccc2C12CC(=O)NC2=O` (stereo not drawn) [Example 126], the inhibition at 10 µM at aldose reductase (10^-5 M) stood at 85%. Besides, the inhibition at 1 µM at aldose reductase was determined as 65%.
As for `CN1C(=O)c2cc(Br)ccc2C12CC(=O)NC2=O` (stereo not drawn) [Example 127], at aldose reductase (10^-5 M), the inhibition at 10 µM was determined as 92%. The inhibition at 1 µM on aldose reductase (10^-6 M) turned out to be 71%.
Taken in the same sequence, the figures for `CCN1C(=O)c2ccc(Cl)cc2C12CC(=O)NC2=O` (stereo not drawn) [Example 128] were 78% and 37%.
For `COc1ccc2c(c1)C(=O)N(C)C21CC(=O)NC1=O` (stereo not drawn) [Example 129], in that order: 83% and 56%.
Taken in the same sequence, the figures for `CSc1ccc2c(c1)C(=O)N(C)C21CC(=O)NC1=O` (stereo not drawn) [Example 130] were 87% and 60%.
As for `CCCN1C(=O)c2cc(Cl)c(Cl)cc2C12CC(=O)NC2=O` (stereo not drawn) [Example 131], on aldose reductase (10^-5 M), the inhibition at 10 µM is 49%. Moreover, the inhibition at 1 µM on aldose reductase (10^-6 M) was 12%.
For `CN1C(=O)c2ccc([N+](=O)[O-])cc2C12CC(=O)NC2=O` (stereo not drawn) [Example 132], in that order: 91% and 77%.
Taken in the same sequence, the figures for `Cc1ccc2c(c1)C(=O)N(C)C21CC(=O)NC1=O` (stereo not drawn) [Example 133] were 89% and 61%.
Taken in the same sequence, the figures for `COC(=O)c1ccc2c(c1)C1(CC(=O)NC1=O)N(C)C2=O` (stereo not drawn) [Example 134] were 87% and 49%.
For `Cc1cccc2c1C(=O)N(C)C21CC(=O)NC1=O` (stereo not drawn) [Example 135, 2,4-dimethylspiro[1H-isoindole-1,3'-pyrrolidine]-2',3,5'(2H)-trione], the inhibition at 10 µM on aldose reductase (10^-5 M) came out at 84%. Also, at aldose reductase (10^-6 M), the inhibition at 1 µM stood at 59%. For the same compound, the “% Lowering … (diaphragm)” value in the assay on galactosemic rats (3 mg/kg) was 37%; in the assay on galactosemic rats (6 mg/kg), 57%; in the assay with galactosemic rats (10 mg/kg), 69%. In addition, the “% Lowering … (sciatic nerve)” value in the assay with galactosemic rats (6 mg/kg, sciatic nerve) turned out to be 50%; in the assay on galactosemic rats (10 mg/kg, sciatic nerve) it was 63%. In addition, the “% Lowering … (lens)” value in the assay with galactosemic rats (10 mg/kg) amounted to 29%.
For the compound `CN1C(=O)c2cc(-c3ccccc3)ccc2C12CC(=O)NC2=O` (stereo not drawn) [Example 136], the inhibition at 10 µM on aldose reductase (10^-5 M) is 90%. In addition, the inhibition at 1 µM at aldose reductase (10^-6 M) was 81%. The “% Lowering … (diaphragm)” value was determined as 29% with galactosemic rats (3 mg/kg), 43% in the assay with galactosemic rats (6 mg/kg) and 55% with galactosemic rats (9 mg/kg). In addition, the “% Lowering … (lens)” value in the assay with galactosemic rats (6 mg/kg) was found to be 13%; in the assay on galactosemic rats (9 mg/kg), 6%. Further, the “% Lowering … (sciatic nerve)” value with galactosemic rats (6 mg/kg, sciatic nerve) is 27%; in the assay on galactosemic rats (9 mg/kg, sciatic nerve) it was 34%.
With `O=C1NC(=O)[C@@]2(CCOc3ccc(F)cc32)N1` [Sorbinil, [(4S)2,3-dihydro-6-fluorospiro[4H1-benzopyran-4,4imidazoli-dine2',5dione, reference compound], on aldose reductase (10^-5 M), the inhibition at 10 µM was found to be 83%. For the same compound, the inhibition at 1 µM on aldose reductase (10^-6 M) was determined as 45%. For the same compound, in the assay with galactosemic rats (4 mg/kg), the “% Lowering … (diaphragm)” value worked out at 69% and the “% Lowering … (lens)” value is reported as 46%. Moreover, in the assay with galactosemic rats (4 mg/kg, sciatic nerve), the “% Lowering … (sciatic nerve)” value is reported as 55%.
Turning to `COc1ccc2c(C(=S)N(C)CC(=O)O)cccc2c1C(F)(F)F` [Tolrestat, reference compound], the “% Lowering … (diaphragm)” value in the assay on galactosemic rats (3 mg/kg) was determined as 80%. Besides, the “% Lowering … (sciatic nerve)” value in the assay on galactosemic rats (3 mg/kg, sciatic nerve) was 30%.
